# Legend:
# [1] = Pharmacokinetics in Capan-1 xenograft model (tumor and blood); format: in vivo; conditions: BALB/c (immune-deficient), mouse, tumor vs whole blood, oral; Capan-1 xenograft tumors; read-out: overall exposure (AUC0-48) in tumors compared to blood
# Procedure: Studies were terminated early if tumor burden reached humane endpoint. Body weights were collected twice a week during the study. Means±s.e.m were plotted in the waterfall plots. For the single-dose pharmacokinetic/pharmacodynamic (PK/PD) study, mice were randomized and assigned into groups (n=3-6/dose/timepoint). […] Sakura, 4583) solution or snap-frozen in LN2 for further analysis. Whole blood was transferred into K2EDTA Microtainer tubes (BD, 365974), incubated for 5 minutes and snap-frozen in LN2. Whole blood, tumor, colon and skin tissue concentrations of RMC-7977 were determined using liquid chromatography-tandem mass spectrometry (LC-MS/MS) methods. […] After thorough mixing and centrifugation, the supernatant was directly analyzed on a Sciex 6500+ triple quadrupole mass spectrometer equipped with an ACQUITY or Shimadzu UPLC system. An ACQUITY UPLC BEH C18 or C4 […] (2.1×50 mm) column was used with gradient elution for compound separation. RMC-7977 and IS (verapamil or terfenadine) were detected by positive electrospray ionization using multiple reaction monitoring (RMC-7977: m/z 865.4/706.4 or m/z 865.3/833.5; verapamil: m/z 455.2/164.9; terfenadine: m/z 472.3/436.4). […] BA analysis on blood and tissue samples from xenograft models was run at Wuxi AppTec. BA analysis on blood and tissue samples from allograft models and GEMM was run at Revolution Medicines.
# [2] = system: murine Dusp6 mRNA in normal colon and skin; assay: PK/PD in normal colon and skin of CDX tumor-bearing mice (Dusp6 qRT-PCR); format: in vivo, mouse
# Procedure: (§1) Tumor-bearing animals were randomized and assigned into groups (n=3-10/group). Vehicle or RMC-7977 was administered via oral gavage daily at 10 mg/kg and animals were treated for 21-28 days. Studies were terminated early if tumor burden reached humane endpoint. Body weights were collected twice a week during the study. Means±s.e.m were plotted in the waterfall plots. For the single-dose pharmacokinetic/pharmacodynamic (PK/PD) study, mice were randomized and assigned into groups (n=3-6/dose/timepoint). A single dose of RMC-7977 was administered orally at 10 mg/kg, 25 mg/kg and 50 mg/kg. […]
# (§2) Whole blood, tumor, colon and skin tissue concentrations of RMC-7977 were determined using liquid chromatography-tandem mass spectrometry (LC-MS/MS) methods. […] After thorough mixing and centrifugation, the supernatant was directly analyzed on a Sciex 6500+ triple quadrupole mass spectrometer equipped with an ACQUITY or Shimadzu UPLC system. […] RMC-7977 and IS (verapamil or terfenadine) were detected by positive electrospray ionization using multiple reaction monitoring (RMC-7977: m/z 865.4/706.4 or m/z 865.3/833.5; verapamil: m/z 455.2/164.9; terfenadine: m/z 472.3/436.4). The lower limit of quantification was 0.5 ng/mL or 2.0 ng/mL for blood, tumor, and other tissue. […]
# [3] = system: wild type RAS; conditions: reference 14; cited from earlier work
# [4] = system: human DUSP6 expression in Capan-1 CDX tumors; assay: PK/PD in Capan-1 xenograft tumors (DUSP6 qRT-PCR); format: in vivo, mouse
# Procedure: as §1, §2
smiles,measurement,setting,value
CCn1c(-c2cc(N3CCN(C4CC4)CC3)cnc2[C@H](C)OC)c2c3cc(ccc31)-c1csc(n1)C[C@H](NC(=O)[C@H]1[C@@H]3COC[C@@H]31)C(=O)N1CCC[C@H](N1)C(=O)OCC(C)(C)C2 [RMC-7977],Kp,[1],~3
same,fold lower EC50 in Capan-1 tumors compared to colon,[2]; normal colon,~22 fold
same,fold lower EC50 in Capan-1 tumors compared to skin,[2]; normal skin,~8 fold
same,affinity for wild type RAS compared to mutant variants,[3],somewhat reduced affinity
same,EC50,"[4]; Mus musculus, CAPAN-1, read-out: EC50, inhibition of DUSP6 expression vs RMC-7977 concentration in tumors",142 nM
same,duration of DUSP6 inhibition post-dose,"[4]; single dose 10, 25 or 50 mg/kg",24 to 48 h

# Reference: US12662707B2, “MYC amplification drives resistance to pan-RAS inhibitors in pancreatic cancer” (The Trustees of Columbia University in the City of New York, priority 2024, dated 2026)
